# ChEMBL document CHEMBL1857833, “Screening and optimization of specific chemical series against human African Trypanosomiasis (HAT)”
# Test system: Trypanosoma brucei
# Assay: DNDI: Inhibition of Human African Trypanosomiasis, SBRI 427, in vitro
# Type: functional, organism-based
# Conditions: Trypanosoma brucei, SBRI 427; read-out: IC50
row,Compound,IC50 [µg/mL]
1,CCOc1ccc(-c2nc(Cn3nc(N)cc3C)co2)cc1,2.11
2,O/N=C(\NC1CCC1)c1ccnc(Oc2cc(Cl)ccc2Cl)c1,0.6
3,O/N=C(\Nc1ccccc1)c1cccnc1OCc1ccccc1,1.26
4,O/N=C(\NC1CCCCC1)c1ccnc(Oc2ccc(F)c(F)c2)c1,> 5
5,COc1ccc(Oc2ncccc2/C(=N/O)NC2CCc3ccccc32)cc1 (stereo not given),1.51
6,Cc1ccc(Oc2cc(/C(=N/O)N3CCCCCC3)ccn2)c(C)c1,> 5
7,CC(C)COc1ncccc1/C(=N/O)NC1CCC(C)CC1 (stereo not given),2.25
8,O/N=C(/c1ccnc(Oc2cccc3c2CCCC3)c1)N1CCSCC1,> 5
9,COc1ccc(Oc2ncccc2/C(=N/O)NCc2ccccc2C)cc1,2.36
10,CCC(CC)N/C(=N\O)c1ccc(C)nc1Oc1cccc(F)c1,1.56
11,CC(C)COc1ncccc1/C(=N/O)NC1CCCCC1,2.18
12,COc1ccc(Oc2ncccc2/C(=N/O)NCc2ccccc2OC)cc1,2.37
13,Cc1ccc(/C(=N/O)N2CCCc3ccccc32)c(Oc2cccc(F)c2)n1,2.54
14,CC(C)(C)CN/C(=N\O)c1ccnc(Oc2ccc(F)c(Cl)c2)c1,2.73
15,CCOc1ccccc1CN/C(=N\O)c1cccnc1Oc1ccc(OC)cc1,1.44
16,O/N=C(\NC1CCCC1)c1ccnc(Oc2cccc(F)c2)c1,2.27
17,O/N=C(\NCc1c(F)cccc1F)c1cccnc1Oc1ccc(F)cc1,2.18
18,Cc1cccc(Oc2nc(C)ccc2/C(=N/O)NCC(C)C)c1,1.67
19,CCOc1ccccc1CN/C(=N\O)c1ccc(C)nc1Oc1ccc(C)cc1C,2.99
20,O/N=C(\NCc1c(F)cccc1F)c1cccnc1Oc1ccccc1,1.58
21,O/N=C(\NC1CCCCC1)c1ccnc(Oc2ccc(Cl)cc2)c1,2.4
22,Cc1ccc(/C(=N/O)NC2CC(C)CC(C)(C)C2)c(OCC(C)C)n1 (stereo not given),1.77

row,Compound,IC50 [µg/mL]
1,Cc1ccc(/C(=N/O)NC2CCCC2)c(Oc2cc(Cl)ccc2Cl)n1,0.4
2,CC(C)COc1ncccc1/C(=N/O)NC1CCC1,1.41
3,CSc1ccc(Oc2ccc(/C(=N/O)NC3CCC(C)CC3)cn2)cc1 (stereo not given),1.35
4,CC(C)(C)CN/C(=N\O)c1ccnc(Oc2cccc(F)c2)c1,2.19
5,Cc1ccc(CN/C(=N\O)c2cccnc2Oc2cc(Cl)ccc2Cl)o1,1.67
6,C=CCc1ccc(Oc2cc(/C(=N/O)NCc3ccc(OC)cc3)ccn2)c(OC)c1,> 5
7,CCC(CC)N/C(=N\O)c1ccc(C)nc1Oc1ccc(F)c(Cl)c1,> 5
8,Cc1ccc(Oc2ncccc2/C(=N/O)NCc2ccccc2)c2c1CCC2,1.28
9,CC(C)c1ccc(Oc2ncccc2/C(=N/O)NCc2c(F)cccc2F)cc1,> 5
10,CC(C)N/C(=N\O)c1cccnc1OCC(C)(C)C,0.9
11,CCC(CC)N/C(=N\O)c1cccnc1OCc1ccccc1,0.51
12,Cc1ccc(-c2nc(Cn3nc(N)cc3C)co2)cc1,> 5
13,Cc1cccc(Oc2nc(C)ccc2/C(=N/O)NCC(C)(C)C)c1,0.32
14,Cc1ccc(Oc2cc(/C(=N/O)NCC(C)(C)C)ccn2)c(C)c1,0.36
15,CC(C)c1cccc(Oc2cc(/C(=N/O)N3CCN(c4ccccc4)CC3)ccn2)c1,2.91
16,Cc1ccc2cccc(Oc3cc(/C(=N/O)NC4CCC(C)CC4)ccn3)c2n1 (stereo not given),4.86
17,CCOc1ccccc1CN/C(=N\O)c1cccnc1Oc1ccc(Cl)cc1,2.13
18,COc1ccc(Oc2cc(/C(=N/O)NCC(C)C)ccn2)cc1,> 5
19,Cc1ccc(-c2nc(CN(Cc3ccccn3)Cc3ccccn3)co2)cc1,> 5
20,Cc1ccccc1CN/C(=N\O)c1cccnc1Oc1cccc(C)c1C,3.57
21,O/N=C(\NCC1CC1)c1cccnc1OCc1ccccc1,0.61
22,CC1CCc2ccccc2N1/C(=N\O)c1cccnc1OCC(C)(C)C (stereo not given),0.66

row,Compound,IC50 [µg/mL]
1,Cc1cc(C)cc(CN/C(=N\O)c2cccnc2OCC(C)C)c1,1.94
2,COc1ccc(Oc2cc(/C(=N/O)NCC(C)(C)C)ccn2)cc1,4.8
3,CC1CCC(N/C(=N\O)c2ccnc(Oc3cccc4cccnc34)c2)CC1 (stereo not given),> 5
4,COCC(C)N/C(=N\O)c1ccnc(Oc2ccc(SC)cc2)c1 (stereo not given),0.45
5,COc1cc(C)ccc1Oc1nc(C)ccc1/C(=N/O)NCc1ccccc1,0.77
6,CN(/C(=N\O)c1ccnc(Oc2ccc(F)c(Cl)c2)c1)C1CCCCC1,> 5
7,Cc1ccc(/C(=N/O)N(C)c2ccccc2)c(Oc2cccc(F)c2)n1,1.34
8,Cc1ccc(Oc2ncccc2/C(=N/O)NCc2c(F)cccc2F)cc1,1.75
9,CCC(CC)N/C(=N\O)c1ccc(C)nc1Oc1cc(Cl)ccc1Cl,3.35
10,O/N=C(\NC1CCCC1)c1ccnc(Oc2cc(Cl)ccc2Cl)c1,10.8
11,Cc1ccc(/C(=N/O)NCC(C)(C)C)c(OCc2cccc(F)c2)n1,2.11
12,O/N=C(\NC1CCCCC1)c1ccnc(Oc2ccc(F)c(Cl)c2)c1,3.79
13,COc1ccc(Oc2ncccc2/C(=N/O)NCC2CCCCC2)cc1,1.96
14,COc1ccc(Oc2cc(/C(=N/O)NC3CCCCC3)ccn2)cc1,3.73
15,O/N=C(\NC1CCC1)c1cccnc1Oc1ccccc1OCc1ccccc1,1.39
16,CCc1ccc(Oc2ncccc2/C(=N/O)NC(C)COC)cc1 (stereo not given),2.17
17,O/N=C(\NCC1CCCCC1)c1ccnc(Oc2cccc3c2CCCC3)c1,5
18,NCCc1cn(Cc2coc(-c3ccc(Cl)cc3Cl)n2)cn1,4.34
19,O/N=C(\NC1CCCC1)c1ccnc(Oc2ccc(F)c(Cl)c2)c1,2.2
20,COc1ccc(Oc2nc(C)ccc2/C(=N/O)NC2CCCC2)cc1,1.33
21,COc1cccc(-c2nc(CNC34C[C@H]5C[C@@H](C3)C[C@@H](C4)C5)co2)c1,> 5
22,Cc1ccc(/C(=N/O)NC2CCC2)c(Oc2ccc3oc4ccccc4c3c2)n1,0.39

row,Compound,IC50 [µg/mL]
1,Cc1ccc(/C(=N/O)NCC2CCCO2)c(Oc2cc(Cl)ccc2Cl)n1 (stereo not given),> 5
2,CSCCN/C(=N\O)c1cccnc1Oc1c(F)cccc1F,4.81
3,COc1cccc(-c2nc(Cn3ccnc3C=O)co2)c1,> 5
4,COCC(C)N/C(=N\O)c1ccnc(Oc2ccc(Cl)cc2)c1 (stereo not given),0.36
5,O/N=C(\NC1CCc2ccccc21)c1cccnc1Oc1c(F)cccc1F (stereo not given),1.7
6,CC1CCC(C)N1/C(=N\O)c1cccnc1OCC(C)(C)C (stereo not given),1.25
7,CCC(CC)N/C(=N\O)c1cccnc1Oc1ccc(F)cc1,1.32
8,COc1ccc(Oc2ncccc2/C(=N/O)NCc2cc(C)cc(C)c2)cc1,2.32
9,CCOc1ccccc1CN/C(=N\O)c1cccnc1Oc1cc(Cl)ccc1Cl,0.66
10,COCCN/C(=N\O)c1ccc(C)nc1Oc1ccc(SC)c(C)c1,> 5
11,COc1ccc(Oc2cc(/C(=N/O)NC3CCC3)ccn2)cc1,4.78
12,O/N=C(/c1cccnc1Oc1cccc(C(F)(F)F)c1)N1CCN(C2CCCC2)CC1,2.33
13,COc1ccc(Oc2ncccc2/C(=N/O)NCc2ccccc2)cc1,3.01
14,Cc1cccc(Oc2nc(C)ccc2/C(=N/O)NC2CCCCC2)c1,1.24
15,Cc1ccc(-c2nc(CNC34C[C@H]5C[C@@H](C3)C[C@@H](C4)C5)co2)cc1,3.86
16,O/N=C(\NCc1cccs1)c1cccnc1Oc1ccc2oc3ccccc3c2c1,2.45
17,CCN(CC)CCCNCc1coc(-c2cccc(C)c2)n1,3.36
18,COCCN/C(=N\O)c1cccnc1Oc1ccc(C)c2c1CCC2,1.77
19,O/N=C(\NC1CCCC1)c1ccnc(Oc2ccc(F)c(F)c2)c1,2.94
